Assay [1] has as its target T1, Full length wild-type cereblon CRBN (Homo sapiens, UniProt Q96SW2).
T1 construct: Full length wild-type cereblon CRBN (80.0 nM, 10 μL) was incubated in assay buffer
Put plainly: Fluorescence polarization (FP) assay indicating cereblon binding. The settings on record: CRBN 80.0 nM, fluorescent probe 5 nM, FP measured after 12 hours; read-out: rFP IC50. The method, boiled down: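 Full-length wild-type human CRBN (80.0 nM) preincubated 30 min at room temperature with compound (12-point curve, 300-0.937 or 3000-9.3 nM) in HEPES pH 8.0, NaCl, TCEP, Tween 20. Thalidomide-based Cy5-type probe then added at 5 nM final; FP read after 12 h (ex 590, em 675 nm), normalized to DMSO, IC50 derived.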
On the technique in general: Fluorescence polarisation rises when a labelled molecule tumbles more slowly, as on binding a larger partner.

The subject of assay [2] is Human mammary epithelial cells (HMEC) engineered to express c-myc tagged with EGFP. Put plainly: 3D spheroid assay, myc-HMEC (CellTiterGlo3D viability). The class given is cell-based.
Assay [3] concerns Human mammary epithelial cells (HMEC) engineered to express EGFP alone (non myc). Put plainly: 3D spheroid assay, non myc-HMEC (CellTiterGlo3D viability). The following applies: 120 h, 3D spheroids, 5 days with compound, read-out: Code: EC50 value in the non myc-HMEC assay. The format is cell-based.
In assay [4] the target is GSPT1 (Homo sapiens, UniProt P15170+Q96SW2). The experiment in a line: Immunofluorescence assay for GSPT1 degradation in CAL-51 cells. The following applies: compound treatment 6 hours. The class given is cell-based. Set-up: CAL-51 cells were purchased from DSMZ (cat. Number ACC302); endogenous in cells; host or cells: CAL-51 (DSMZ ACC302). The method, boiled down: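 CAL-51 cells on fibronectin-coated plates treated 6 h with compound (30 μM to 0.1 nM); fixed, stained with anti-GSPT1/Alexa-488, phalloidin and DAPI, imaged by high-content microscopy. Mean GSPT1 intensity per cell normalized to controls; DC50 by non-linear regression.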

[5] abbreviates: Homo sapiens, HMEC, 120 h, 3D spheroids, 5 days with compound, read-out: Code: EC50 value in the myc-HMEC assay.
[6] abbreviates: read-out: Code: activity for GSPT1 degradation (DC50).
Setting [7] is: myc-HMEC 3D spheroids (compounds with code D and E), 5 days, read-out: EC50.

The structures appear in SMILES notation. Where two headings read alike, the source gives them in different places.

T1 sequence (Q96SW2 whole entry): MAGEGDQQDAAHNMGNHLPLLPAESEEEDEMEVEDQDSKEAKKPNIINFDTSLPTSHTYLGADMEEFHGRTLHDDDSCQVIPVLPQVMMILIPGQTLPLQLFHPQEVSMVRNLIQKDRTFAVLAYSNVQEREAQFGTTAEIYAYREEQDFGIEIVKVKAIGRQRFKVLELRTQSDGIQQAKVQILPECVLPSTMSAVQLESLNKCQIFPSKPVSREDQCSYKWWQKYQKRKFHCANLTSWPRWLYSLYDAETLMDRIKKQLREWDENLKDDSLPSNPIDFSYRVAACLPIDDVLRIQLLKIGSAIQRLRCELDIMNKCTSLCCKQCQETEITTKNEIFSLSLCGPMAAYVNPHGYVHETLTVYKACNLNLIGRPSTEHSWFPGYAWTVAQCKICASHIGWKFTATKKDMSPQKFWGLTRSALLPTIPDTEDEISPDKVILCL
GSPT1, sequence (P15170 whole entry): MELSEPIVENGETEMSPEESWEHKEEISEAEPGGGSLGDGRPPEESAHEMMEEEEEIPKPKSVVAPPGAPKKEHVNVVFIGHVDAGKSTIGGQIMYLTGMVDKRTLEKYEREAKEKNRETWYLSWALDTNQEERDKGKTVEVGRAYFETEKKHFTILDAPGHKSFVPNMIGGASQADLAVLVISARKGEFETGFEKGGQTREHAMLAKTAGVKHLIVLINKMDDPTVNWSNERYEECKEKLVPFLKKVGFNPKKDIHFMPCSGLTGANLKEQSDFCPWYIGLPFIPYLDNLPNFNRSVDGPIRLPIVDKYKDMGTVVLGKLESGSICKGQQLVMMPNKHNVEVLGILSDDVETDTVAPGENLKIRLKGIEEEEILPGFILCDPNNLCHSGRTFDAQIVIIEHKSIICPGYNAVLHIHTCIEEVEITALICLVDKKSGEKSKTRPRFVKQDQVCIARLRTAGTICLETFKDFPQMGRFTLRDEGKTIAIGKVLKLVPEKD
GSPT1, sequence (Q96SW2 whole entry): as the sequence (Q96SW2 whole entry) above
GSPT1, sequence (Q16531 2-1140 partner limits assumed): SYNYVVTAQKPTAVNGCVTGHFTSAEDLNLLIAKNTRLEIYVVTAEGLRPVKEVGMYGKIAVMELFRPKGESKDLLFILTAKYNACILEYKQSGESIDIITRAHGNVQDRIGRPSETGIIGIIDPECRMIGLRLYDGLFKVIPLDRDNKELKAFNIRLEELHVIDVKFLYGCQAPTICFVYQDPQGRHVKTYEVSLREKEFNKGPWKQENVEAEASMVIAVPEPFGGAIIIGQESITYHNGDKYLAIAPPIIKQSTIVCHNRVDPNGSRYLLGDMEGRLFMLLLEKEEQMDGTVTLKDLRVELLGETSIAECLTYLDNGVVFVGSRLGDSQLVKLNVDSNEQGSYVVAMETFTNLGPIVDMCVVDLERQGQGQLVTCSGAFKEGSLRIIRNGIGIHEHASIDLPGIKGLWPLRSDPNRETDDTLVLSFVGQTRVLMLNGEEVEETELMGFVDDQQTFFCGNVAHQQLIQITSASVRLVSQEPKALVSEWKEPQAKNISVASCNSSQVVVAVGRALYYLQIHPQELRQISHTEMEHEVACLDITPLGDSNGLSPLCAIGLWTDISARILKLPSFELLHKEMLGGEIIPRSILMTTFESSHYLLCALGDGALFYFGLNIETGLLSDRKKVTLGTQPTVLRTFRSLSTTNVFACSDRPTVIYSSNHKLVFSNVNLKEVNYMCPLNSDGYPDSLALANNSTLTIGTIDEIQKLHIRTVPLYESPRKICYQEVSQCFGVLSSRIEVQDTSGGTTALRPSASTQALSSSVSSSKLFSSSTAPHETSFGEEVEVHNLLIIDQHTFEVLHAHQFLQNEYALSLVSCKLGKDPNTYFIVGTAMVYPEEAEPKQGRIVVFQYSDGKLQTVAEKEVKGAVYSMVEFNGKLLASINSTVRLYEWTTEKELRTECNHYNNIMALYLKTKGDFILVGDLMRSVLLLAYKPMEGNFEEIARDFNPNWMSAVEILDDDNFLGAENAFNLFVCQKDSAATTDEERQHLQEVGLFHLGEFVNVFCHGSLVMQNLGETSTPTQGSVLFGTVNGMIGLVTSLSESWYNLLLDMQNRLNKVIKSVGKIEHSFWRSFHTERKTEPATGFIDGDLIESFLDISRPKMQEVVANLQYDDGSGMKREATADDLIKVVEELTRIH

One may read the IC50 as the concentration needed to halve the response being measured. One may read the EC50 as the concentration needed to bring the measured effect to its halfway point. As a reminder, the DC50 is the midpoint of the concentration-degradation curve. With `Cc1cccc(C)c1NC(=O)NCc1ccc2c(c1)C(=O)N(C1CCC(=O)NC1=O)C2` (stereo not shown) [Compound 25], in assay [1], the IC50 stood at 612 nM. The half-maximal effective concentration (EC50) is over 2000 nM in assay [2] (setting [5]) and over 10000 nM in assay [3]. For the same compound, the half-maximal degradation concentration (DC50) in assay [4] (setting [6]) was over 300 nM.
Regarding `COc1ccc(NC(=O)NCc2ccc3c(c2)C(=O)N(C2CCC(=O)NC2=O)C3)cc1Cl` (stereo not shown) [Compound 59], the concentration for half-maximal inhibition (IC50) in assay [1] was found to be 373 nM. Moreover, the EC50 in assay [2] (setting [5]) was 400 to 2000 nM; in assay [2] (setting [7]), 589 nM; in assay [3] it was over 10000 nM. For the same compound, the DC50 in assay [4] (setting [6]) was 100 to 300 nM.
Regarding `O=C1CCC(N2Cc3ccc(CNC(=O)Nc4ccccc4F)cc3C2=O)C(=O)N1` (stereo not shown) [Compound 48], in assay [1], the half-inhibitory concentration (IC50) was found to be 719 nM. Further, the EC50 in assay [2] (setting [5]) is over 2000 nM; in assay [3], over 10000 nM. Further, in assay [4] (setting [6]), the DC50 is over 300 nM.
Regarding `CCOc1ccccc1NC(=O)NCc1ccc2c(c1)C(=O)N(C1CCC(=O)NC1=O)C2` (stereo not shown) [Compound 22], in assay [1], the 50% inhibitory concentration (IC50) worked out at 393 nM. Further, the half-maximal effective concentration (EC50) is over 2000 nM in assay [2] (setting [5]) and over 10000 nM in assay [3]. Also, in assay [4] (setting [6]), the 50% degradation concentration (DC50) was over 300 nM.
Turning to `O=C1CCC(N2Cc3ccc(CNC(=O)Nc4cccc(Cl)c4)cc3C2=O)C(=O)N1` (stereo not shown) [Compound 3], the half-maximal inhibitory concentration (IC50) in assay [1] was 400 nM. Also, the 50% effective concentration (EC50) in assay [2] (setting [5]) is over 2000 nM; in assay [3] it was over 10000 nM. The half-maximal degradation concentration (DC50) in assay [4] (setting [6]) was over 300 nM.
As to `O=C1CCC(N2Cc3ccc(CNC(=O)Nc4ccc(F)c(Cl)c4)cc3C2=O)C(=O)N1` (stereo not shown) [Compound 42], in assay [1], the IC50 was determined as 589 nM. Also, the 50% effective concentration (EC50) is 400 to 2000 nM in assay [2] (setting [5]); at most 2000 nM in assay [2] (Homo sapiens, HMEC, 120 h, myc-HMEC 3D spheroids (compounds with code D and E), 5 days, read-out: EC50); 1720 nM in assay [2] (setting [7]); over 10000 nM in assay [3]. Moreover, the DC50 in assay [4] (GSPT1 degradation, read-out: DC50) was 253 nM; in assay [4] (setting [6]), 100 to 300 nM.
In the case of `Cc1ccccc1NC(=O)NCc1ccc2c(c1)C(=O)N(C1CCC(=O)NC1=O)C2` (stereo not shown) [Compound 37], the half-inhibitory concentration (IC50) in assay [1] amounted to 672 nM. The EC50 in assay [2] (setting [5]) was over 2000 nM; in assay [3], over 10000 nM. Moreover, the DC50 in assay [4] (setting [6]) was over 300 nM.
With `O=C1CCC(N2Cc3ccc(CNC(=O)Nc4ccc(Cl)c(Cl)c4)cc3C2=O)C(=O)N1` (stereo not shown) [Compound 46], in assay [1], the IC50 is 1400 nM. For the same compound, the figures for the EC50 in assay [2] (setting [5]), in assay [2] (setting [7]) and in assay [3] were 400 to 2000 nM, 469 nM and over 10000 nM, respectively. The half-maximal degradation concentration (DC50) in assay [4] (setting [6]) was at most 100 nM.
